Legend:
[1] = molecular target: T1, human D2long receptor (Homo sapiens, UniProt P14416); experiment: Replacement of [3H]methyl-spiperone binding from human D2long receptor expressed by HEK-293 cells
T1 construct: expressed in transfected cells; host or cells: HEK-293
Procedure: In particular, the receptor binding study was conducted by analysing the ability to replace the binding of [^3H]methyl-spiperone from the human D2long receptor expressed by HEK-293 cells (Hall, D. A. and Strange, P. G., 1997, Brit. J. Pharmacol. 121:731-736).

[2] = tested on: D2 receptors; experiment: Contractility of the rabbit ear artery, antagonism of the selective D2 agonist quinpirol; conditions: for antagonism of the effect of the selective D2 agonist quinpirol: 100 nM
[3] = tested on: rats; experiment: Amphetamine-induced hypermotility test; assay type: in vivo, rat; conditions: 3 mg/kg i.p.; amphetamine 2.5 mg/kg i.p.; FIG. 1
Procedure: Some behavioural tests were also conducted to identify possible antipsychotic properties of RS-79948-197.

[4] = tested on: rats; experiment: Quinpirol-induced stereotypies; assay type: in vivo, rat
Excerpt: The data are the average of 6 rats and are expressed in total counts. *P<0.01 vs. treatment with physiological saline (Student's t-test).

[5] = tested on: rats; experiment: Pre-pulse inhibition (PPI) deficit induced by MK-801; assay type: in vivo, rat; conditions: RS-79948-197 3 mg/kg i.p.; MK-801 0.1 mg/kg i.p.; FIG. 3
Procedure: The data are the average of 4-8 rats. *P<0.05, **P<0.01 vs. VEH+MK (one-way ANOVA followed by Tukey's Test).
The activity of RS-79948-197 was also evaluated on the deficit of “pre-pulse inhibition” (PPI) induced by MK-801, an antagonist of NMDA receptors of glutamate. As already mentioned previously, this latter test is considered the “gold standard” for the evaluation of the possible atypical antipsychotic activity of a drug and is predictive of the efficacy on negative symptoms, as well as on positive ones, of schizophrenia.

[6] = tested on: extracellular levels of dopamine; experiment: Microdialysis of extracellular dopamine in rat medial prefrontal cortex; assay type: in vivo; conditions: free-moving rats, RS-79948-197 3 mg/kg i.p., clozapine 2.5 mg/kg i.p., FIG. 4
Procedure: The drugs were administered at time T=60 min, as indicated by the arrow. The values are expressed as a percentage of the basal value (mean+/−SEM).
Also, the effect of RS-79948-197 on the extracellular levels of dopamine in the rat prefrontal cerebral cortex, through microdialysis in free-moving rats, was further evaluated. As can be clearly seen in the appended FIG. 4, the effects of the two drugs are substantially overlapping, as both have increased the extracellular concentration of dopamine up to about 250% of the respective basal value. Given the hypothesis of cortical hypodopaminergy in the etiopathogenesis of schizophrenia, the ability of a drug to increase the cortical dopamine is considered a favourable effect for its antipsychotic properties.

T1 sequence (P14416 whole entry): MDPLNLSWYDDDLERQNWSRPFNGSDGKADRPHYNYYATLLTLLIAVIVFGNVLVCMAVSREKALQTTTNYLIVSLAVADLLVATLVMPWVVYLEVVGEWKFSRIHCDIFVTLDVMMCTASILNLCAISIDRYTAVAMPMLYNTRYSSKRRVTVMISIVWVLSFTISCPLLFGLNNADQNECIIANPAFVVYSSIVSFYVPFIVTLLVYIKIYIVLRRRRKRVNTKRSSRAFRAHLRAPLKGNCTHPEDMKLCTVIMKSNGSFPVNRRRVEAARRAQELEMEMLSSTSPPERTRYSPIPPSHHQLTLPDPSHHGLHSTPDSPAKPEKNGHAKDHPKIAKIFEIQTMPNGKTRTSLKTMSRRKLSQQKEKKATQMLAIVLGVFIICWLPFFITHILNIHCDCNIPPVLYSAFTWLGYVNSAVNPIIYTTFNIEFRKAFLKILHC

| affinity relative to that of clozapine ([1]; human D2long receptor) | Ki ([1]; human D2long receptor expressed by HEK-293 cells, read-out: Ki, inhibition of [3H]methyl-spiperone binding) | antagonism of the effect of the selective D2 agonist quinpirol [2] | effect on quinpirol-induced release at higher concentrations ([2]; higher concentrations than 100 nM) | Structure (SMILES) | total distance travelled by rats in 120 minutes [3] | stereotypies induced by quinpirol ([4]; 3 mg/kg i.p., quinpirol 0.5 mg/kg i.p., FIG. 2) | extrapyramidal effects per se ([4]; rats) | PPI deficit induced by MK-801 [5] | extracellular concentration of dopamine, percentage of basal value [6] |
| --- | --- | --- | --- | --- | --- | --- | --- | --- | --- |
| about twice | 95 nM | 70% | completely cancelled | CCS(=O)(=O)N1CCC[C@@H]2CN3CCc4cc(OC)ccc4[C@@H]3C[C@@H]21.Cl [RS-79948-197, (8aR,12aS,13aS)-5,8,8a,9,10, 11, 12, 12a, 13, 13a-decahydro-3-methoxy-12-(ethylsulphonyl)-6H-isoquino[2,1-g][1,6]naphthyridine] | significantly decreased | effectively reduced | without inducing per se extrapyramidal effects | effectively reduced | about 250 % of the respective basal value |
| – | – | about 40% | – | CCN1CCCC1CNC(=O)c1cc(S(N)(=O)=O)ccc1OC (stereo not shown) [sulpiride, reference compound] | – | – | – | – | – |

Reference: patent publication US20210393616A1, “PHARMACEUTICAL COMPOSITIONS AND METHODS FOR TREATING PSYCHOSIS” (UNIVERSITA' DEGLI STUDI DI CAGLIARI, priority 2018, published 2021)
